Assay results from ChEMBL document CHEMBL1909294, “Translating clinical findings into knowledge in drug safety evaluation--drug induced liver injury prediction system (DILIps)” (PLoS Comput Biol, 2011).

How the values were obtained:
[1] = system: Hepatotoxicity;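 on HepSE elevated liver function tests: hepatic side effect score for raised liver function tests, as recorded in the DILIps training set used for predicting drug-induced liver injury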;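 on HepSE hepatic necrosis: score of hepatic side effects for hepatic necrosis, drawn from the training data of DILIps, a prediction system for drug-induced liver injury; call rule not given here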;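 on HepSE hepatomegaly: hepatic side effect score for hepatomegaly, taken from the training set of the DILIps drug-induced liver injury prediction system; call rule not given here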;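 on HepSE jaundice: Jaundice-related hepatic side-effect score drawn from the training data of the DILIps (drug-induced liver injury prediction system); call rule not given here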;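 on HepSE liver fatty: hepatic side effect score for fatty liver, taken from the DILIps training set for predicting drug-induced liver injury; call rule not given here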;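 on HepSE liver function tests abnormal: hepatic side effect score taken from the DILIps (drug-induced liver injury prediction system) training data, here covering abnormal liver function test findings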
[2] = system: Hepatotoxicity; remark: listed apart in the source;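 on HepSE elevated liver function tests: hepatic side effect score for raised liver function tests, as recorded in the DILIps training set used for predicting drug-induced liver injury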;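 on HepSE hepatic necrosis: score of hepatic side effects for hepatic necrosis, drawn from the training data of DILIps, a prediction system for drug-induced liver injury; call rule not given here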;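 on HepSE hepatomegaly: hepatic side effect score for hepatomegaly, taken from the training set of the DILIps drug-induced liver injury prediction system; call rule not given here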;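 on HepSE jaundice: Jaundice-related hepatic side-effect score drawn from the training data of the DILIps (drug-induced liver injury prediction system); call rule not given here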;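 on HepSE liver fatty: hepatic side effect score for fatty liver, taken from the DILIps training set for predicting drug-induced liver injury; call rule not given here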;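 on HepSE liver function tests abnormal: hepatic side effect score taken from the DILIps (drug-induced liver injury prediction system) training data, here covering abnormal liver function test findings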
[3] = system: Hepatotoxicity; remark: listed apart in the source;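 on HepSE elevated liver function tests: hepatic side effect score for raised liver function tests, as recorded in the DILIps training set used for predicting drug-induced liver injury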;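 on HepSE hepatic necrosis: score of hepatic side effects for hepatic necrosis, drawn from the training data of DILIps, a prediction system for drug-induced liver injury; call rule not given here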;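 on HepSE hepatomegaly: hepatic side effect score for hepatomegaly, taken from the training set of the DILIps drug-induced liver injury prediction system; call rule not given here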;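 on HepSE liver fatty: hepatic side effect score for fatty liver, taken from the DILIps training set for predicting drug-induced liver injury; call rule not given here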;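 on HepSE liver function tests abnormal: hepatic side effect score taken from the DILIps (drug-induced liver injury prediction system) training data, here covering abnormal liver function test findings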
[4] = system: Hepatotoxicity; remark: listed apart in the source;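 on HepSE elevated liver function tests: hepatic side effect score for raised liver function tests, as recorded in the DILIps training set used for predicting drug-induced liver injury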;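 on HepSE hepatic necrosis: score of hepatic side effects for hepatic necrosis, drawn from the training data of DILIps, a prediction system for drug-induced liver injury; call rule not given here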;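 on HepSE hepatomegaly: hepatic side effect score for hepatomegaly, taken from the training set of the DILIps drug-induced liver injury prediction system; call rule not given here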;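 on HepSE liver fatty: hepatic side effect score for fatty liver, taken from the DILIps training set for predicting drug-induced liver injury; call rule not given here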;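 on HepSE liver function tests abnormal: hepatic side effect score taken from the DILIps (drug-induced liver injury prediction system) training data, here covering abnormal liver function test findings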
[5] = system: Hepatotoxicity; remark: listed apart in the source
[6] = system: Hepatotoxicity; remark: listed apart in the source
[7] = system: Hepatotoxicity; remark: listed apart in the source
[8] = system: Hepatotoxicity; remark: listed apart in the source
[9] = system: Hepatotoxicity; remark: listed apart in the source
[10] = system: Hepatotoxicity; remark: listed apart in the source
[11] = system: Hepatotoxicity; remark: listed apart in the source
[12] = system: Hepatotoxicity; remark: listed apart in the source
[13] = system: Hepatotoxicity; remark: listed apart in the source
[14] = system: Hepatotoxicity; remark: listed apart in the source

Row | Molecule | HepSE_hepatic necrosis [1] | HepSE_elevated liver function tests [2] | HepSE_liver fatty [3] | HepSE_cholelithiasis [4] | HepSE_bilirubinemia [5] | HepSE_liver function tests abnormal [6] | HepSE_hepatomegaly [7] | HepSE_hepatitis [8] | HepSE_jaundice [9] | HepSE_cirrhosis [10] | HepSE_cholecystitis [11] | HepSE_Combined Scores [12] | HepSE_hepatic failure [13] | HepSE_liver disease [14] | further results
1 | Cc1cc(C2CCCCC2)n(O)c(=O)c1 [CICLOPIROX] | 0 | 0 | 0 | 0 | 0 | 0 | 0 | 0 | 0 | 0 | 0 | 0 | 0 | 0 | –
2 | O=C1CN(/N=C/c2ccc([N+](=O)[O-])o2)C(=O)N1 [NITROFURANTOIN] | – | – | – | – | – | – | – | – | – | – | – | – | – | – | HepSE_hepatic necrosis ([1]; Liver): 1; HepSE_elevated liver function tests ([2]; Liver): 0; HepSE_liver fatty ([3]; Liver): 0; HepSE_cholelithiasis ([4]; Liver): 0; HepSE_bilirubinemia ([5]; Liver): 0; HepSE_liver function tests abnormal ([6]; Liver): 0; HepSE_hepatomegaly ([7]; Liver): 0; HepSE_hepatitis ([8]; Liver): 1; HepSE_jaundice ([9]; Liver): 1; HepSE_cirrhosis ([10]; Liver): 0; HepSE_cholecystitis ([11]; Liver): 0; HepSE_Combined Scores ([12]; Liver): 3; HepSE_hepatic failure ([13]; Liver): 0; HepSE_liver disease ([14]; Liver): 0
3 | CCN(CC)CCN1C(=O)CN=C(c2ccccc2F)c2cc(Cl)ccc21 [FLURAZEPAM] | 0 | 0 | 0 | 0 | 0 | 0 | 0 | 0 | 0 | 0 | 0 | 0 | 0 | 0 | –
4 | CN1C(CCl)Nc2cc(Cl)c(S(N)(=O)=O)cc2S1(=O)=O (configuration not stated) [METHYCLOTHIAZIDE] | 0 | 0 | 0 | 0 | 0 | 0 | 0 | 0 | 1 | 0 | 0 | 1 | 0 | 0 | –
5 | CO[C@H]1/C=C/O[C@@]2(C)Oc3c(C)c(O)c4c(c3C2=O)C2=NC3(CCN(CC(C)C)CC3)NC2=C(NC(=O)/C(C)=C\C=C\[C@H](C)[C@H](O)[C@@H](C)[C@@H](O)[C@@H](C)[C@H](OC(C)=O)[C@@H]1C)C4=O [RIFABUTIN] | – | – | – | – | – | – | – | – | – | – | – | – | – | – | HepSE_hepatic necrosis ([1]; Liver): 0; HepSE_elevated liver function tests ([2]; Liver): 0; HepSE_liver fatty ([3]; Liver): 0; HepSE_cholelithiasis ([4]; Liver): 0; HepSE_bilirubinemia ([5]; Liver): 0; HepSE_liver function tests abnormal ([6]; Liver): 0; HepSE_hepatomegaly ([7]; Liver): 0; HepSE_hepatitis ([8]; Liver): 1; HepSE_jaundice ([9]; Liver): 0; HepSE_cirrhosis ([10]; Liver): 0; HepSE_cholecystitis ([11]; Liver): 0; HepSE_Combined Scores ([12]; Liver): 1; HepSE_hepatic failure ([13]; Liver): 0; HepSE_liver disease ([14]; Liver): 0
6 | CC1=C(C(=O)O)N2C(=O)[C@@H](NC(=O)[C@H](N)C3=CCC=CC3)[C@H]2SC1 [CEPHRADINE] | 0 | 0 | 0 | 0 | 0 | 0 | 0 | 0 | 0 | 0 | 0 | 0 | 0 | 0 | –
7 | HYDROXOCOBALAMIN | 0 | 0 | 0 | 0 | 0 | 0 | 0 | 0 | 0 | 0 | 0 | 0 | 0 | 0 | –
8 | CCOC(=O)c1ccc(C#Cc2ccc3c(c2)C(C)(C)CCS3)nc1 [TAZAROTENE] | 0 | 0 | 0 | 0 | 0 | 0 | 0 | 0 | 0 | 0 | 0 | 0 | 0 | 0 | –
